What was measured:
cumulus-oocyte complexes = assay: Cumulus expansion test in vitro; assay type: cell-based, mice (strain: B6D2F1); conditions: for inhibition at 1 µM / inhibition at 0.5 µM: Mus musculus, 0.3 μM PGE2 for stimulation; for inhibition at 1 µM: read-out: % reduction at 1 μM (reduction in the cumulus expansion); for inhibition at 0.5 µM: read-out: % reduction at 0.5 μm (reduction in the cumulus expansion)
Method: 4.2. Cumulus Expansions Test In Vitro In immature female mice (strain: B6D2F1 from Charles River), at an age of 14-18 days, the folliculogenesis was induced by a single administration (intraperitoneal) of 10 IU of PMSG (pregnant mare serum gonadotropin; Sigma G-4877, Lot 68H0909). 47-50 hours after the injection, the ovaries were removed and the cumulus-oocyte complexes removed. At this stage, the cumulus complex is not yet expanded. The cumulus-oocyte complexes were now incubated for 20-24 hours with prostaglandin E2 (PGE) (0.3 μM), vehicle control (ethanol) or test substances. Medium: alpha-MEM medium with 0.1 mM IBMX, pyruvate (0.23 mM), glutamine (2 mM), pen/strep 100 IU/ml pen. and 100 μg/ml strep.), HSA (8 mg/ml) and foetal bovine serum (FBS, 10%). The cumulus expansion was then established through the subdivision into four stages (after Vanderhyden et al. Dev Biol. 1990 August; 140(2):307-317).

[1] = molecular target: EP4 subtype of the human PGE2 receptor (Homo sapiens, UniProt P35408); assay: cAMP antagonism test on the human EP4 receptor (HTRF cAMP detection); assay type: cell-based; conditions: selectivity towards hEP4, IC50 measured by cAMP antagonism test
Outline: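 Competitive HTRF cAMP read-out (cAMP-d2 vs Eu-cryptate anti-cAMP antibody, 665/620 nm ratio) on lysed human EP4 cells. Compound (0.8 nM–16.5 μM) applied 20 min at RT before 60 min PGE2 challenge (3× solution 0.3 nM, IBMX present); 20 min lysis precedes reading.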

human PGD receptor = molecular target: T1, human PGD receptor (Homo sapiens, UniProt Q13258); assay: cAMP antagonism test on the human prostaglandin D receptor (HTRF cAMP detection); assay type: cell-based; conditions: selectivity towards hDP, IC50 measured by cAMP antagonism test
T1 sequence (Q13258 1-359): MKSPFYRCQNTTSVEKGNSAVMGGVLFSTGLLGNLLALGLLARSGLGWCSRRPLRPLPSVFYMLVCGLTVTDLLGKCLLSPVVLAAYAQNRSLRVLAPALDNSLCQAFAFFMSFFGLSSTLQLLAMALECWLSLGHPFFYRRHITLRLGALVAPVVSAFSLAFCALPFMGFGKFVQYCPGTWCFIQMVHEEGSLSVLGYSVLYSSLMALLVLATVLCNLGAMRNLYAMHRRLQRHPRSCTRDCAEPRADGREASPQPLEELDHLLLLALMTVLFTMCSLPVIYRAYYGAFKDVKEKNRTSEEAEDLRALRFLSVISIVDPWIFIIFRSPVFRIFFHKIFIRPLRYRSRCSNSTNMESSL
Outline: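 HTRF competition read-out (665/620 nm ratio ×10000), where higher FRET means less cAMP, i.e. antagonism. Compounds (0.8 nM–16.5 μM) were preincubated 20 min at RT with cells and cAMP-d2, PGD2 (3× solution, 6 nM) in IBMX-containing PBS added for 30 min at RT, then cells lysed 20 min.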

[2] = molecular target: EP2 subtype of the human PGE2 receptor (Homo sapiens, UniProt P43116); assay: cAMP antagonism test on the human EP2 receptor (HTRF cAMP detection); assay type: cell-based; conditions: hEP2 receptor, read-out: Antagonism hEP2 IC50
Outline: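 Read-out is a competitive HTRF for cAMP: lysate cAMP displaces cAMP-d2 from Eu cryptate-labelled antibody, and antagonism raises the 665/620 nm ratio. Compound (0.8 nM–16.5 μM) added to EP2 cells 20 min at RT before 60 min PGE2 challenge (3× stock 1.5 nM) with IBMX, followed by 20 min lysis.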

[3] = test system: female cynomolgus monkeys (Macaca Fascicularis); assay: In-vivo action on fertility in non-human primates (mating study); conditions: 6 months, 10 mg/kg (Example 17 once daily, Example 56 twice daily)
Method: 4.4 In-Vivo Action on Fertility in Non-Human Primates (Cynomolgus):
In order to study the effect of substances on fertility, mating studies can be performed in monkeys (Jensen et al. Contraception 81 (2010) 165-171). For this, the test substances are administered to female cynomolgus monkeys (Macaca Fascicularis) which are being kept in groups, then the animals are mated with a male animal. Matings are checked for by sperm detection in daily vaginal smears. Pregnancies resulting therefrom are identified by hormone determinations and ultrasound examinations. Through the changes in the serum oestradiol concentrations during the cycle, (rise before the midcycle LH peak), the fertile phase within a cycle of the individual animals can be determined Matings in this fertile period are described as “timed matings” (matings in the fertile phase). Apart from the absolute number of pregnancies occurring, the effect on the fertility can also be expressed as pregnancies per “timed matings”.
To test the action of EP2 receptor antagonists on fertility in monkeys, Examples 17 and 56 according to the invention were administered over 6 months, dissolved in 0.5 ml castor oil. Example 17 was administered once daily at a dosage of 10 mg/kg (n=10 animals), while Example 56 was administered twice daily at a dosage of 10 mg/kg (n=9 animals). Only the vehicle was administered to a control group (n=10 animals). In the first month of the treatment, no male animal was placed with the female animals. After this, female and male animals were kept together over 5 months, with detection of pregnancies and cycle monitoring.

Chain of EP2 subtype of the human PGE2 receptor (P43116 whole entry): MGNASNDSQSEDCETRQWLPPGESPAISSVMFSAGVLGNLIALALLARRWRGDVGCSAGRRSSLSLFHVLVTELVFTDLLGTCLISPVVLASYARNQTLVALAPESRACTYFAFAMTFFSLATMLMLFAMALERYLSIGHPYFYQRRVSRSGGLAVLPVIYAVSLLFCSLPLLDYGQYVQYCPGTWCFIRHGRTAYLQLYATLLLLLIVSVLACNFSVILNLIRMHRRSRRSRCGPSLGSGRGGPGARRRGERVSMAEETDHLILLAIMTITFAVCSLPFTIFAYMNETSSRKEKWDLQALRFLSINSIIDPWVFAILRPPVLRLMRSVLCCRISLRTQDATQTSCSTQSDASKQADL
Chain of EP4 subtype of the human PGE2 receptor (P35408 whole entry): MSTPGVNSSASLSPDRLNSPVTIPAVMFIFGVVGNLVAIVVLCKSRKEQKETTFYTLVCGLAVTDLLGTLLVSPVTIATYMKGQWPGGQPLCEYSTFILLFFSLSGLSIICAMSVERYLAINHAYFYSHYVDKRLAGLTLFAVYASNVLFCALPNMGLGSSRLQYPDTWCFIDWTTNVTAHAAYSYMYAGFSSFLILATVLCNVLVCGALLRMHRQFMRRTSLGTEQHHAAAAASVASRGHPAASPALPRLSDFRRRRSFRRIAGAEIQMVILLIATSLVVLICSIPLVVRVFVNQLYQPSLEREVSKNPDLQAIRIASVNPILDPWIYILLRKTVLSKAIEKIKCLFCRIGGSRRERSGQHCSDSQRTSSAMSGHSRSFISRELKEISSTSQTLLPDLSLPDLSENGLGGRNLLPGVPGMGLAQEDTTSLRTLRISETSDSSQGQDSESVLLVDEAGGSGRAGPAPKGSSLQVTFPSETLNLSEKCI

| SMILES | Selectivity hEP2/hEP4 [1] | Selectivity hEP2/hDP (human PGD receptor) | IC50 [2] [nM] | suppression of the cumulus expansion (cumulus-oocyte complexes; concentration of 100-200 μM, PGE2 0.3 μM) | inhibition at 1 µM (cumulus-oocyte complexes) [%] | inhibition at 0.5 µM (cumulus-oocyte complexes) [%] | % Pregnancies/"timed mating" [3] [%] | Pregnancies [3] |
| --- | --- | --- | --- | --- | --- | --- | --- | --- |
| CC(C)Oc1ccc2c(=O)c3cc(C(=O)O)ccc3oc2c1 [AH6809, reference compound] |  |  |  | ca. 30% |  |  |  |  |
| Cc1c(C(=O)NCC(C)C)ccc2nn(CC3CCN(C(=O)c4ccc(Oc5ccc(C(F)(F)F)cc5)cc4)CC3)cc12 [Example 404, N-isobutyl-4-methyl-2-[(1-{4-[4-(trifluoromethyl)phenoxy]benzoyl}piperidin-4-yl)methyl]-2H-indazol-5-carboxamide] | xxx (xxx > 100) | xxx (xxx > 100) | 20.2 |  |  |  |  |  |
| Cc1c(C(=O)NCC(C)(C)C)ccc2nn(CC3CCN(C(=O)c4ccc(Oc5ccc(C(F)(F)F)cc5)cc4)CC3)cc12 [Example 405, 4-methyl-N-neopentyl-2-[(1-{4-[4-(trifluoromethyl)phenoxy]benzoyl}piperidin-4-yl)methyl]-2H-indazol-5-carboxamide] | x (x: 1-10) | x (x: 1-10) | 2140 |  |  |  |  |  |
| Cc1c(C(=O)NCCS(C)(=O)=O)ccc2nn(CC3CCN(C(=O)c4ccc(-c5ccc(F)cc5)cc4)CC3)cc12 [Example 408, 2-({1-[(4′-fluorobiphenyl-4-yl)carbonyl]piperidin-4-yl}methyl)-N-(2-mesylethyl)-4-methyl-2H-indazol-5-carboxamide] | xxx (xxx > 100) | xxx (xxx > 100) | 23.5 |  |  |  |  |  |
| Cc1c(C(=O)NCCCO)ccc2nn(CC3CCN(C(=O)c4ccc(-c5ccc(F)cc5)cc4)CC3)cc12 [Example 409, 2-({1-[(4′-fluorobiphenyl-4-yl)carbonyl]piperidin-4-yl}methyl)-N-(3-hydroxypropyl)-4-methyl-2H-indazol-5-carboxamide] | xxx (xxx > 100) | xxx (xxx > 100) | 31.8 |  |  |  |  |  |
| Cc1c(C(=O)NCCO)ccc2nn(CC3CCN(C(=O)c4ccc(-c5ccc(F)cc5)cc4)CC3)cc12 [Example 410, 2-({1-[(4′-fluorobiphenyl-4-yl)carbonyl]piperidin-4-yl}methyl)-N-(2-hydroxyethyl)-4-methyl-2H-indazol-5-carboxamide] | xxx (xxx > 100) | xxx (xxx > 100) | 90.4 |  |  |  |  |  |

Second part, led by results:

| Selectivity hEP2/hEP4 [1] | Selectivity hEP2/hDP (human PGD receptor) | IC50 [2] [nM] | SMILES | suppression of the cumulus expansion (cumulus-oocyte complexes; concentration of 100-200 μM, PGE2 0.3 μM) | inhibition at 1 µM (cumulus-oocyte complexes) [%] | inhibition at 0.5 µM (cumulus-oocyte complexes) [%] | % Pregnancies/"timed mating" [3] [%] | Pregnancies [3] |
| --- | --- | --- | --- | --- | --- | --- | --- | --- |
| xxx (xxx > 100) | xxx (xxx > 100) | 5.11 | COCCNC(=O)c1ccc2nn(CC3CCN(C(=O)c4ccc(-c5ccc(F)cc5)cc4)CC3)cc2c1C [Example 5, 2-({1-[(4′-fluorobiphenyl-4-yl)carbonyl]piperidin-4-yl}methyl)-N-(2-methoxy-ethyl)-4-methyl-2H-indazol-5-carboxamide] |  | 59 | 56 |  |  |
| xxx (xxx > 100) | xxx (xxx > 100) | 13.1 | COCCNC(=O)c1ccc2nn(CC3CCN(C(=O)c4ccc(Cl)cc4)CC3)cc2c1C [Example 56, 2-{[1-(4-chlorobenzoyl)piperidin-4-yl]methyl}-N-(2-methoxyethyl)-4-methyl-2H-indazol-5-carboxamide] |  |  |  | 12 | 2 |
| xxx (xxx > 100) | xxx (xxx > 100) | 5.94 | Cc1c(C(=O)NCC(F)(F)F)ccc2nn(CC3CCN(C(=O)c4ccc(Oc5ccc(C(F)(F)F)cc5)cc4)CC3)cc12 [Example 291, 4-methyl-N-(2,2,2-trifluoroethyl)-2-[(1-{4-[4-(trifluoromethyl)phenoxy]-benzoyl}piperidin-4-yl)methyl]-2H-indazol-5-carboxamide] |  | 73 | 76 |  |  |
| xxx (xxx > 100) | xxx (xxx > 100) | 13.9 | Cc1c(C(=O)NCC(F)(F)F)ccc2nn(CC3CCN(C(=O)c4ccc(Oc5ccc(C(F)(F)F)nc5)cc4)CC3)cc12 [Example 303, 4-methyl-N-(2,2,2-trifluoroethyl)-2-{[1-(4-{[6-(trifluoromethyl)pyridin-3-yl]-oxy}benzoyl)piperidin-4-yl]methyl}-2H-indazol-5-carboxamide] |  | 47 | 38 |  |  |
| xxx (xxx > 100) | xxx (xxx > 100) | 6.26 | COCCNC(=O)c1ccc2nn(CC3CCN(C(=O)c4ccc(Oc5ccc(C(F)(F)F)cn5)cc4)CC3)cc2c1C [Example 345, N-(2-methoxyethyl)-4-methyl-2-{[1-(4-{[5-(trifluoromethyl)pyridin-2-yl]oxy}-benzoyl)piperidin-4-yl]methyl}-2H-indazol-5-carboxamide] |  | 36 | 18 |  |  |
| xxx (xxx > 100) | xxx (xxx > 100) | 8.19 | Cc1c(C(=O)NCC2CC2)ccc2nn(CC3CCN(C(=O)c4ccc(Oc5ccc(C(F)(F)F)cc5)cc4)CC3)cc12 [Example 406, N-(cyclopropylmethyl)-4-methyl-2-[(1-{4-[4-(trifluoromethyl)phenoxy]-benzoyl}piperidin-4-yl)methyl]-2H-indazol-5-carboxamide] |  |  |  |  |  |
| xxx (xxx > 100) | xxx (xxx > 100) | 11.6 | Cc1c(C(=O)NCCC#N)ccc2nn(CC3CCN(C(=O)c4ccc(-c5ccc(F)cc5)cc4)CC3)cc12 [Example 407, N-(2-cyanoethyl)-2-({1-[(4′-fluorobiphenyl-4-yl)carbonyl]piperidin-4-yl}-methyl)-4-methyl-2H-indazol-5-carboxamide] |  |  |  |  |  |

Reference: patent US9062041B2 (Bayer Intellectual Property GmbH, priority 2011, dated 2015)
